Source: patent publication US20150313906A1, “COMBINATION” (GLAXOSMITHKLINE LLC, priority 2012, published 2015)
Like-named read-outs stand apart in the source and are kept apart here.

Columns and labels:
[1] = tested on: WSU-DLCL-2, a DLBCL line harboring a Y641F mutation in EZH2; assay: DLBCL cell growth (CellTiter-Glo) with BCL-2 inhibitor after Compound A pre-treatment, WSU-DLCL2; format: cell-based; details: Homo sapiens, read-out: gIC50
Method: (§1) Plates were incubated for 6 days at 37° C. in 5% CO2. Cells were then lysed with CellTiter-Glo (CTG) (Promega) according to the manufacturer's protocol and chemiluminescent signal was detected with a TECAN Safire2 microplate reader. CTG estimates cell number through detection of cellular ATP levels. In addition, an untreated plate of cells was harvested at the time of compound addition (T0) to quantify the starting number of cells. CTG values were expressed as a percent of the T0 value and plotted against compound concentration.

[2] = tested on: KARPAS-422, a DLBCL line harboring a Y641N mutation in EZH2; assay: DLBCL cell growth (CellTiter-Glo) with BCL-2 inhibitor after Compound A pre-treatment, KARPAS-422; details: for IC50: read-out: gIC50
Method: as §1

[3] = tested on: SU-DHL-6, a DLBCL line harboring a Y641N mutation in EZH2; assay: DLBCL cell growth (CellTiter-Glo) with BCL-2 inhibitor after Compound A pre-treatment, SU-DHL-6; format: cell-based; details: for IC50: Homo sapiens, read-out: gIC50
Method: as §1

[4] = tested on: Farage, a DLBCL line harboring WT EZH2; assay: DLBCL cell growth (CellTiter-Glo) with BCL-2 inhibitor after Compound A pre-treatment, Farage; format: cell-based; details: for IC50: read-out: gIC50
Method: as §1

[5] = WSUDLCL2, 144 h, WSU-DLCL2, BCL2 inhibitor alone (no Compound A), 6 days
[6] = WSUDLCL2, WSU-DLCL2, Compound A 250 nM 72 h pre-treatment then 6 day co-treatment
[7] = KARPAS-422, BCL2 inhibitor alone (no Compound A), 6 days
[8] = KARPAS-422, Compound A 100 nM 72 h pre-treatment then 6 day co-treatment
[9] = KARPAS-422, Compound A 500 nM 72 h pre-treatment then 6 day co-treatment
[10] = 144 h, SU-DHL-6, BCL2 inhibitor alone (no Compound A), 6 days
[11] = SU-DHL-6, Compound A 250 nM 72 h pre-treatment then 6 day co-treatment
[12] = 144 h, BCL2 inhibitor alone (no Compound A), 6 days
[13] = Compound A 1 μM 72 h pre-treatment then 6 day co-treatment

Row | IC50 [2, 7] | IC50 [2, 8] | IC50 [2, 9] | IC50 [3, 10] | IC50 [3, 11] | Structure (SMILES) | IC50 [1, 5] | IC50 [1, 6] | Fold shift in potency over ABT-263 alone ([2]; KARPAS-422, Compound A 100 nM) | Fold shift in potency over ABT-263 alone ([2]; KARPAS-422, Compound A 500 nM) | Fold shift in potency over ABT-263 alone ([3]; SU-DHL-6, Compound A 250 nM) | IC50 [4, 12] | Fold shift in potency over ABT-263 alone ([4]; Compound A 1 μM) | IC50 [4, 13] | Fold shift in potency over ABT-737 alone ([2]; KARPAS-422, Compound A 100 nM) | Fold shift in potency over ABT-737 alone ([2]; KARPAS-422, Compound A 500 nM) | Fold shift in potency over ABT-737 alone ([3]; SU-DHL-6, Compound A 250 nM) | Fold shift in potency over ABT-737 alone ([4]; Compound A 1 uM)
1 | 169 nM | 60 nM | 0.4 nM | 518 nM | 17 nM | CC1(C)CCC(c2ccc(Cl)cc2)=C(CN2CCN(c3ccc(C(=O)NS(=O)(=O)c4ccc(N[C@H](CCN5CCOCC5)CSc5ccccc5)c(S(=O)(=O)C(F)(F)F)c4)cc3)CC2)C1 [ABT-263] | 464 nM | 1150 nM | 2.8 | 423 | 31 | 455 nM | 43 | 11 nM | – | – | – | –
2 | 334 nM | 78 nM | 1.1 nM | 1330 nM | 110 nM | CN(C)CC[C@H](CSc1ccccc1)Nc1ccc(S(=O)(=O)NC(=O)c2ccc(N3CCN(Cc4ccccc4-c4ccc(Cl)cc4)CC3)cc2)cc1[N+](=O)[O-] [ABT-737] | 1410 nM | 971 nM | – | – | – | 4710 nM | – | 246 nM | 4.3 | 304 | 12 | 19
